Series [1] relates to edema in the hind paws (carrageenan). Nature of the series: Antiinflammatory effect: carrageenan-induced edema of the hind paws. It is filed as in vivo, Male Wister rats. The note with it: oral, rat; for Inhibition (%) (after 3 hours): 1% carrageenan edema. As for the experimental part:
Male Wister rats each weighing about 100 g, one group consisting of 5 to 7 rats, were orally given test compounds, and edema was then induced in the hind paws by a subcutaneous injection of 0.1 ml of a 1% carrageenan saline solution one hour after the administration of the test compounds. With a predetermined lapse of time, the volumes of the hind paws were measured by a volume differential meter. Indomethacin was used as an active placebo.
(Carrageenan injected into the paw causes an acute inflammation.)

The subject of series [2] is writhing syndromes (acetic acid). As to the kind of experiment: Analgesic effect: acetic acid-induced writhing syndromes. It is filed as in vivo, dd Male mice. The conditions noted are these: oral, mouse, 0.6% acetic acid writhing within 20 minutes. As for the experimental part: dd Male mice each weighing 18 to 22 g, one group consisting of 10 mice, were given by an intraperitoneal injection of 0.6% acetic acid in a dosage of 0.1 ml/10 g/body weight. The number of writhing syndromes occurring within 20 minutes after the injection was observed. These animals were given orally test compounds suspended in a 0.2% carboxymethylcellulose solution 30 minutes before the injection of acetic acid. The inhibitory percentage of each of the test compounds was calculated in comparison with a control in which a 0.2% carboxymethylcellulose solution only was given. Aspirin was used as an active placebo.
A general note: An intraperitoneal irritant provokes the stretching counted in writhing tests.

The nature of series [3]: LD50 by the Lichfield-Wilcoxon method. The note with it: rat, in vivo, rats. The source says: This fact confirms the excellent effects of the present compounds.

One may read the LD50 as the dose expected to kill half of the subjects tested.

On to `O=C(O)Cc1ccc2c(c1)CC(=O)c1ccccc1S2` [Comparative compound A], for which the “Antiinflammatory activity (ratio to Indomethacin)” value in series [1] was 0.01. Moreover, the “Analgesic activity (ratio to Aspirin)” value in series [2] came out at 1.
For `O=C(O)Cc1ccc2c(c1)Sc1ccccc1C(=O)C2` [Comparative compound B], in that order: 0.01 and 1.
In the case of `CC(C(N)=O)c1ccc2c(c1)CC(=O)c1ccccc1S2` (centres unmarked) [Compound 1, 2-(10,11-Dihydro-10-oxodibenzo[b,f]thiepin-2-yl)-propionamide], the “Inhibition (%) (after 3 hours)” value in series [1] (2 mg/kg) was 52.5%.
`CC(C(=O)O)c1ccc2c(c1)CC(=O)c1ccccc1S2` (centres unmarked) [Compound 2, 2-(10,11-Dihydro-10-oxodibenzo[b,f]thiepin-2-yl)-propionic acid] showed an LD50 in series [3] of 232 mg/kg. The “Inhibition (%) (after 3 hours)” value in series [1] (2 mg/kg) came out at 55.8%. Besides, in series [1], the “Antiinflammatory activity (ratio to Indomethacin)” value amounted to 2. Besides, in series [2], the “Analgesic activity (ratio to Aspirin)” value is listed as 20.
Regarding `COc1ccc2c(c1)c(CC(=O)O)c(C)n2C(=O)c1ccc(Cl)cc1` [Indomethacin], the results for the “Inhibition (%) (after 3 hours)” value in series [1] (2 mg/kg) and in series [1] (4 mg/kg) were 35.9% and 51.9%, respectively.
